Data published in patent publication US9868737B2, “Pyridino[1,2-A]pyrimidone analogue used as MTOR/P13K inhibitor” (CISEN PHARMACEUTICAL CO., LTD., priority 2014, dated 2018).
Read-outs that look alike come from different tables or passages of the source.

System: MCF-7 cells
Test: In vitro test of cell activity (MCF-7 cells, insulin stimulation, ELISA-One fluorescence)
Type: cell-based
Settings: for inhibition at 0.25 µM / IC50 / inhibition at 0.5 µM / inhibition at 1 µM: Homo sapiens, MCF7, MCF-7 cells; for inhibition at 0.25 µM: conc. 0.25 μM; for inhibition at 0.5 µM: conc. 0.5 μM
Procedure: Example In Vitro Tests of Cell Activities Experimental Steps and Methods:
1) MCF-7 cells were inoculated at the density of 2.5×10^4 cells/well into 96-well plates (the culture medium used should be a complete culture medium containing 10% FBS).
2) On the next day, the medium in each well was drawn out. A certain concentration (preliminary screening) or a series of concentration (IC50 test) of compounds were dissolved in a culture medium without serum and added to the 96-well plates to culture cells for 2 hours.
3) Insulin was dissolved in a culture medium without serum, added to the cultured cells and incubated for 30 minutes, wherein the final concentration of insulin was […].
4) A lysis solution was prepared according to the following method during the waiting period for the reaction:
a) Enhancer solution was removed from the refrigerator to melt in advance.
b) Enhancer solution was diluted 10 times with the 5× Lysis Buffer to give a concentrated lysis solution.
c) The concentrated lysis solution was diluted 5 times with double distilled water to give the lysis solution.
5) The medium in each well was completely removed and each well was quickly rinsed with PBS once.
6) 150 μl of the freshly prepared lysis solution was added to each well and shaked at room temperature for 10 minutes.
7) After confirming that all cells were detached, the lysis solution together with the cell fragments was transferred into a 1.5 ml tube.
8) The tube was shaked on vortes mixer to make the lysis solution and cells mix completely and then the mixture was centrifugated at 4° C. under 12000 g for 10 minutes.
9) The number of strips of ELISA-one micro-well plate that is required was calculated. The needless strips were removed from the frame, put back into the storage bag and sealed. Before the strips of micro-well plate were used, 200 μl of double distilled water was used to rinse each well to remove preservative.
10) 50 μl of antibody mixture was added to each well. (The antibody mixture solution was prepared by mixing the medium antibody reagent and the enzyme labeled antibody reagent with an equal proportion. The preparation of antibody mixture didn't need vortex.)
11) 25 μl of cell lysates was added to each well of ELISA-One micro-well plate. The micro-well plate was covered with adhesive sealing film and incubated on a micro-well plate oscillation instrument at room temperature for 1 hour.
12) Each well was rinsed with 150 μl of 1× rinsing buffer 3 times. After the last rinsing, the rinsing buffer in the well was completely removed. If necessary, the 1× rinsing buffer could be allowed to stay in the micro-well plate for up to 30 minutes so that the substrate mixed solution could be prepared during such time period.
13) The substrate mixed solution should be prepared just before each use, 10 μl of the substrate mixed solution was added to each well and the micro-well plate was sealed with tin-foil and incubated on the micro-well plate oscillation instrument at room temperature for 10 minutes.
14) 10 μl of stop solution was added to each well and mixed slightly (5-10 seconds) on the micro-well plate oscillation instrument.
15) The corresponding ELISA-One filter group was assembled and used to read the fluorescence signal intensity.

[1] = conc. 1 μM, read-out: % inhibition AKT
[2] = conc. 1 μM, read-out: % inhibition p70s6k

IC50 (read-out: IC50 p-AKT) [nM] | Structure (SMILES) | inhibition at 0.5 µM (read-out: % inhibition AKT) [%] | inhibition at 0.5 µM (read-out: % inhibition p70s6k) [%] | further results
– | COc1ncc(-c2ccc3nc(C)cc(=O)n3c2)cc1NS(=O)(=O)c1ccc(F)cc1F [compound 221, 2,4-difluoro-N-(2-methoxy-5-(2-methyl-4-oxo-4H-pyrido[1,2-a]pyrimidin-7-yl)pyridin-3-yl)benzsulfamide] | – | – | inhibition at 0.25 µM (read-out: % inhibition AKT): -42%; inhibition at 0.25 µM (read-out: % inhibition p70s6k): 6.8%
> 250 | COc1ncc(-c2ccc3ncc(NC(C)=O)c(=O)n3c2)cc1NS(=O)(=O)c1ccc(F)cc1F [compound 97] | – | – | –
– | COc1ncc(-c2cn3c(=O)ccnc3cc2C)cc1NS(=O)(=O)c1cc(F)ccc1F [compound 131] | -27 | 4.5 | –
≤ 50 | COc1ncc(-c2ccc3ncc(N)c(=O)n3c2)cc1NS(=O)(=O)c1sc(C)nc1C [compound 93] | – | – | –
50 to 100 | COc1ccc(S(=O)(=O)Nc2cc(-c3ccc4nccc(=O)n4c3)cnc2OC)cc1 [compound 24] | – | – | inhibition at 1 µM [1]: 94.6%; inhibition at 1 µM [2]: 93.2%; IC50 (read-out: IC50 p-p70S6K): 100 to 250 nM
≤ 50 | COCCOc1cnc2ccc(-c3cnc(OC)c(NS(=O)(=O)c4ccc(F)cc4Br)c3)cn2c1=O [compound 279] | – | – | –
– | COc1ncc(-c2cn3c(=O)ccnc3cc2F)cc1NS(=O)(=O)c1ccc(C(F)(F)F)cc1 [compound 118] | 27.8 | 11.5 | –
100 to 250 | COc1ncc(-c2ccc3ncc(Cl)c(=O)n3c2)cc1NS(=O)(=O)c1c(C)noc1C [compound 166] | – | – | inhibition at 0.25 µM (read-out: % inhibition AKT): 66.5%; inhibition at 0.25 µM (read-out: % inhibition p70s6k): 89.2%; IC50 (read-out: IC50 p-p70S6K): 100 to 250 nM
≤ 50 | COc1ncc(-c2ccc3ncc(F)c(=O)n3c2)cc1NS(=O)(=O)c1ccc(F)cc1Cl [compound 62] | 90.2 | 90.8 | IC50 (read-out: IC50 p-p70S6K): 50 to 100 nM
– | COc1ncc(-c2cn3c(=O)ccnc3cc2C)cc1NS(=O)(=O)c1cccc(F)c1 [compound 124] | -48 | 2.8 | –
≤ 50 | COCCOc1cnc2ccc(-c3cnc(OC)c(NS(=O)(=O)c4ccc(N)nc4C)c3)cn2c1=O [compound 190] | – | – | –
– | O=c1ccnc2ccc(-c3cnc(Cl)c(NS(=O)(=O)N4CCOCC4)c3)cn12 [compound 31] | – | – | inhibition at 1 µM [1]: 67.8%; inhibition at 1 µM [2]: 45.5%
– | COc1ncc(-c2ccc3nccc(=O)n3c2)nc1NS(=O)(=O)c1ccc(F)cc1F [compound 33] | -40.9 | 0.8 | –
– | COc1ncc(-c2cn3c(=O)ccnc3cn2)cc1NS(=O)(=O)c1ccc(F)cc1F [compound 39, 2,4-difluoro-N-(2-methoxy-5-(4-oxo-4H-pyrazino[1,2-a]pyrimidin-7-yl)pyridin-3-yl)benzsulfamide] | -28.6 | 7.1 | –
– | COc1ncc(-c2cn3c(=O)ccnc3cc2F)cc1NS(=O)(=O)c1cc(F)ccc1F [compound 116] | 52.3 | 6.7 | –
≤ 50 | COc1ncc(-c2ccc3ncc(OC)c(=O)n3c2)cc1NS(=O)(=O)c1ccc(F)cc1F [compound 103, 2,4-difluoro-N-(2-methoxy-5-(3-methoxy-4-oxo-4H-pyrido[1,2-a]pyrimidin-7-yl)pyridin-3-yl) benzsulfamide] | 94.5 | 89.4 | IC50 (read-out: IC50 p-p70S6K): 50 to 100 nM
≤ 50 | COc1ncc(-c2ccc3ncc(C)c(=O)n3c2)cc1NS(=O)(=O)c1cccc(F)c1 [compound 86] | 92.8 | 88.1 | IC50 (read-out: IC50 p-p70S6K): 100 to 250 nM
> 250 | COCCOc1ncc(-c2ccc3ncc(Cl)c(=O)n3c2)cc1NS(=O)(=O)c1ccc(F)cc1F [compound 231, N-[5-(3-chloro-4-oxo-4H-pyrido[1,2-a]pyrimidin-7-yl)-2-(2-methoxy-ethoxy)-pyridin-3-yl]-2,4-difluorobenzsulfamide] | – | – | –
≤ 50 | COc1ncc(-c2ccc3ncc(Cl)c(=O)n3c2)cc1NS(=O)(=O)c1cccc(Cl)c1 [compound 141] | 96.1 | 88.1 | IC50 (read-out: IC50 p-p70S6K): ≤ 50 nM

IC50 (read-out: IC50 p-AKT) [nM] | Structure (SMILES) | inhibition at 0.5 µM (read-out: % inhibition AKT) [%] | inhibition at 0.5 µM (read-out: % inhibition p70s6k) [%] | further results
– | COc1ncc(-c2ccc3nccc(=O)n3n2)cc1NS(=O)(=O)c1ccc(C(F)(F)F)cc1 [compound 80] | 54.6 | 14.4 | –
– | COc1ncc(-c2ccc3nccc(=O)n3n2)cc1NS(=O)(=O)c1ccccc1F [compound 72] | 51.1 | 10.2 | –
> 250 | CNc1ncc(-c2ccc3ncc(OCCOC)c(=O)n3c2)cc1NS(=O)(=O)c1ccc(F)cc1F [compound 215] | – | – | –
> 250 | COCCCOc1ncc(-c2ccc3ncc(Cl)c(=O)n3c2)cc1NS(=O)(=O)c1ccc(F)cc1F [compound 232] | – | – | –
– | COc1ncc(-c2cn3c(=O)ccnc3cc2F)cc1NS(=O)(=O)c1c(F)cccc1F [compound 114] | 53 | -1.2 | –
– | COc1ncc(-c2cn3c(=O)ccnc3cc2C)cc1NS(=O)(=O)c1ccc(F)cc1Cl [compound 128] | -1.1 | 0.4 | –
≤ 50 | COc1ncc(-c2ccc3ncc(Cl)c(=O)n3c2)cc1NS(=O)(=O)c1ccccc1Cl [compound 136] | 95.5 | 87.2 | IC50 (read-out: IC50 p-p70S6K): 50 to 100 nM
– | CCc1ncc(-c2ccc3nccc(=O)n3c2)cc1NS(=O)(=O)c1ccccc1F [compound 17] | – | – | inhibition at 1 µM [1]: 81.1%; inhibition at 1 µM [2]: 34.1%
– | COc1ncc(-c2cn3c(=O)ccnc3cc2C)cc1NS(=O)(=O)c1ccccc1Cl [compound 122] | -26.6 | 1.2 | –
≤ 50 | COc1ncc(-c2ccc3nccc(=O)n3c2)cc1NS(=O)(=O)c1ccc(Cl)cc1 [compound 23] | – | – | inhibition at 1 µM [1]: 95.7%; inhibition at 1 µM [2]: 93.9%; IC50 (read-out: IC50 p-p70S6K): 100 to 250 nM
– | Cc1ncc(-c2ccc3nccc(=O)n3c2)cc1NS(=O)(=O)c1ccc(F)cc1F [compound 14] | – | – | % inhibition AKT (MCF-7 cells, conc. 1 μM): 81.4%; % inhibition p70s6k (MCF-7 cells, conc. 1 μM): 47.3%
50 to 100 | COCCOc1cnc2ccc(-c3cnc(OC)c(NS(=O)(=O)c4ccc(F)cc4F)c3)cn2c1=O [compound 175, 2,4-difluoro-N-(2-methoxy-5-(3-(2-methoxyethoxy)-4-oxo-4H-pyrido[1,2-a]pyrimidin-7-yl)pyridin-3-yl)benzsulfamide] | – | – | inhibition at 0.25 µM (read-out: % inhibition AKT): 75.2%; inhibition at 0.25 µM (read-out: % inhibition p70s6k): 65.4%; IC50 (read-out: IC50 p-p70S6K): 100 to 250 nM
≤ 50 | COc1ncc(-c2ccc3ncc(N)c(=O)n3c2)cc1NS(=O)(=O)c1ccc(F)cc1F [compound 87, N-(5-(3-amino-4-oxo-4H-pyrido[1,2-a]pyrimidin-7-yl)-2-methoxpyridin-3-yl)-2,4-difluorobenzsulfamide] | 92.1 | 88.1 | IC50 (read-out: IC50 p-p70S6K): 100 to 250 nM
– | COc1ncc(-c2cn3c(=O)ccnc3cn2)cc1NS(=O)(=O)c1ccc(C)nc1 [compound 45] | 15.2 | -1 | –
> 250 | COc1nnc(-c2ccc3ncc(Cl)c(=O)n3c2)cc1NS(=O)(=O)c1ccc(F)cc1F [compound 133] | – | – | –
– | COc1ncc(-c2ccc3ncc(Cl)c(=O)n3c2)cc1NS(=O)(=O)c1cccc(F)c1 [compound 138] | 68.9 | 73.8 | –
≤ 50 | COc1ncc(-c2ccc3ncc(OC)c(=O)n3c2)cc1NS(=O)(=O)c1ccc(Cl)s1 [compound 108] | – | – | inhibition at 0.25 µM (read-out: % inhibition AKT): 92.4%; inhibition at 0.25 µM (read-out: % inhibition p70s6k): 82.5%; IC50 (read-out: IC50 p-p70S6K): ≤ 50 nM
≤ 50 | COc1ncc(-c2ccc3ncc(OC)c(=O)n3c2)cc1NS(=O)(=O)c1sc(N)nc1C [compound 109] | – | – | –
